Source: PMC5814754, “Quantitative, Wide-Spectrum Kinase Profiling in Live Cells for Assessing the Effect of Cellular ATP on Target Engagement” (Cell Chemical Biology, 2018)
Blank lines part the entries; values can stand above or below the compound they belong to.

Key:
Assay in all cases: Apparent affinity (EC50) of energy transfer probes by titration onto live HEK293 cells expressing kinase/Nluc fusions (Table S1)
Format in all cases: binding
[1] = molecular target: full-length kinase/Nluc fusion proteins (Homo sapiens, UniProt P57059); details: SIK1 (NP_001307572), Nluc orientation N; read-out: Probe EC50
[2] = molecular target: full-length kinase/Nluc fusion proteins (Homo sapiens, UniProt P53671); details: LIMK2, Nluc C; read-out: Probe EC50
[3] = molecular target: full-length kinase/Nluc fusion proteins (Homo sapiens, UniProt Q9H0K1); details: SNF1LK2 (NP_056006), Nluc orientation N; read-out: Probe EC50
Sequence of full-length kinase/Nluc fusion proteins (Homo sapiens, UniProt Q9H0K1) (Q9H0K1 whole entry, the tested form may be a part): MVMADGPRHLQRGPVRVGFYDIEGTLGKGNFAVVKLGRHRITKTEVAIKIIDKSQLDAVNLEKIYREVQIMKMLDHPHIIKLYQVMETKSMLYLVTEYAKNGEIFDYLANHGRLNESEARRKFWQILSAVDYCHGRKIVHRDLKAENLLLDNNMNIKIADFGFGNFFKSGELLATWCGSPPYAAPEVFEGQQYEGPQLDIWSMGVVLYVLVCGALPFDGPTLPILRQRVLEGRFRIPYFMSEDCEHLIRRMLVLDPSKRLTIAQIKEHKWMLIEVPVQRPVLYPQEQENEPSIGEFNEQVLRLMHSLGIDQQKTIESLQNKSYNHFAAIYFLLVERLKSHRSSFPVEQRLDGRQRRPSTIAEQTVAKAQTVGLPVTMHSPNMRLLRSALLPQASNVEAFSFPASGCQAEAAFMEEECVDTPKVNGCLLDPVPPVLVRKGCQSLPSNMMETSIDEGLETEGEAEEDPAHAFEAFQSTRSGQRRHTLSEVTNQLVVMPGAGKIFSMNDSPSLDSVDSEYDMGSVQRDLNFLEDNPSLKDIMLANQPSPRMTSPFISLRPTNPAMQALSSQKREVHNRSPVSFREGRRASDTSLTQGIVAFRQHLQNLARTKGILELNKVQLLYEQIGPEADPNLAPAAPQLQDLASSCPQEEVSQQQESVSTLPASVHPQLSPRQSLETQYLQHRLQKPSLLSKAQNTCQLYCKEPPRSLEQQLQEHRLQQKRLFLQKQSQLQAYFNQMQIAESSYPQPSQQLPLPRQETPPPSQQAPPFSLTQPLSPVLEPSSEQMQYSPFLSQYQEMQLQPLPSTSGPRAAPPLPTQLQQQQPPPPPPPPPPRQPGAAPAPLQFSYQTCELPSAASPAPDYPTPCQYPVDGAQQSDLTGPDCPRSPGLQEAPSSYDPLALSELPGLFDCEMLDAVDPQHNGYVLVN

[4] = molecular target: full-length kinase/Nluc fusion proteins (Homo sapiens, UniProt P54760); details: EPHB4, Nluc C; read-out: Probe EC50
[5] = molecular target: full-length kinase/Nluc fusion proteins (Homo sapiens, UniProt P51451); details: BLK, Nluc N; read-out: Probe EC50
[6] = molecular target: full-length kinase/Nluc fusion proteins (Homo sapiens, UniProt P07333); details: CSF1R, Nluc C; read-out: Probe EC50
[7] = molecular target: full-length kinase/Nluc fusion proteins (Homo sapiens, UniProt P29322); details: EPHA8, Nluc C; read-out: Probe EC50
[8] = molecular target: full-length kinase/Nluc fusion proteins (Homo sapiens, UniProt Q9Y2K2); details: SIK3 (NP_079440), Nluc orientation N; read-out: Probe EC50
[9] = molecular target: full-length kinase/Nluc fusion proteins (Homo sapiens, UniProt Q08345); details: DDR1, Nluc C; read-out: Probe EC50
[10] = molecular target: full-length kinase/Nluc fusion proteins (Homo sapiens, UniProt P06241); details: FYN, Nluc C; read-out: Probe EC50
Sequence of full-length kinase/Nluc fusion proteins (Homo sapiens, UniProt P06241) (P06241 whole entry, the tested form may be a part): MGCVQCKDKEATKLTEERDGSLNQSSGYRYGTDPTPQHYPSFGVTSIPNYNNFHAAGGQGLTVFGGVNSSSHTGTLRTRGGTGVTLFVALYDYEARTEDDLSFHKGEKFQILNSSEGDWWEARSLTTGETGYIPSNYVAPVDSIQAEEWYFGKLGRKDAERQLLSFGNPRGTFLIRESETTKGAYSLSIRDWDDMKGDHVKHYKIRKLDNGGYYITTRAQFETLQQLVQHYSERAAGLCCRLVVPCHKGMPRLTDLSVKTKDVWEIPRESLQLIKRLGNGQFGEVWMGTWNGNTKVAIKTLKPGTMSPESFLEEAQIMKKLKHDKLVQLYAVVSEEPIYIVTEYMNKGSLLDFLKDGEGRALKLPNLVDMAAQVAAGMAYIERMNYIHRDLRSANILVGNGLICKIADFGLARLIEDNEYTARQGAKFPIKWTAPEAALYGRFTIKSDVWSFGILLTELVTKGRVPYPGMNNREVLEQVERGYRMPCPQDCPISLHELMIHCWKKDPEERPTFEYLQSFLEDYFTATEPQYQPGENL

[11] = molecular target: full-length kinase/Nluc fusion proteins (Homo sapiens, UniProt P45984); details: MAPK9, Nluc N; read-out: Probe EC50
[12] = molecular target: full-length kinase/Nluc fusion proteins (Homo sapiens, UniProt P51817); details: PRKX, Nluc C; read-out: Probe EC50
[13] = molecular target: full-length kinase/Nluc fusion proteins (Homo sapiens, UniProt Q9HAZ1); details: CLK4, Nluc C; read-out: Probe EC50
[14] = molecular target: full-length kinase/Nluc fusion proteins (Homo sapiens, UniProt P07949); details: RET, Nluc C; read-out: Probe EC50
Sequence of full-length kinase/Nluc fusion proteins (Homo sapiens, UniProt P07949) (P07949 29-1114): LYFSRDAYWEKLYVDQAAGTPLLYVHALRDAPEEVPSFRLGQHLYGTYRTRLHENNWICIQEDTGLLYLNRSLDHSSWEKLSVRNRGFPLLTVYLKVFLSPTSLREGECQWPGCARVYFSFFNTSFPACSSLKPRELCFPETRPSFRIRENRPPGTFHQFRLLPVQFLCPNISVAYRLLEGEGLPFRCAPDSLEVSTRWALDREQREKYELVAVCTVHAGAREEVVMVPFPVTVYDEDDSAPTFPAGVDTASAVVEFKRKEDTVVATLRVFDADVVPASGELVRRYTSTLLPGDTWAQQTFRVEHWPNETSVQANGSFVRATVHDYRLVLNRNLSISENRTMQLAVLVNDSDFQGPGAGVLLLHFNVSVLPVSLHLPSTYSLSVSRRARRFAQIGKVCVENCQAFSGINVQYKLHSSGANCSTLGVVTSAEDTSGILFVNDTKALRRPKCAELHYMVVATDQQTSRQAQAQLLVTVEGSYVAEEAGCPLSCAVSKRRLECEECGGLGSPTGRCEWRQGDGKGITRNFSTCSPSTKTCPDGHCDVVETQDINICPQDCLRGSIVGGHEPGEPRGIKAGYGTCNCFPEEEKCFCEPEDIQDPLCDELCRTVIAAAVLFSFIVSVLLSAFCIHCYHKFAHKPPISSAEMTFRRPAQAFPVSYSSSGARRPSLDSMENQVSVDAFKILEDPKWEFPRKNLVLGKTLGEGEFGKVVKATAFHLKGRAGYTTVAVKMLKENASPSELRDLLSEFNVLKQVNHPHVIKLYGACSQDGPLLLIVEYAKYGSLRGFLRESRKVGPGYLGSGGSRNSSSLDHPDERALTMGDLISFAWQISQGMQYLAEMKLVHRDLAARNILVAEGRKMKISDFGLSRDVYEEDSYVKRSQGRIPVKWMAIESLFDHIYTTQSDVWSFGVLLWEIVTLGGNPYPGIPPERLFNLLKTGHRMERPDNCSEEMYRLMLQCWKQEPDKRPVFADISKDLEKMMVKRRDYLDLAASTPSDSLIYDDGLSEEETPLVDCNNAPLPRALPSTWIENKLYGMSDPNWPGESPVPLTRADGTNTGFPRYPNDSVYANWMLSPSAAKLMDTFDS

[15] = molecular target: full-length kinase/Nluc fusion proteins (Homo sapiens, UniProt O00444); details: PLK4, Nluc N; read-out: Probe EC50
[16] = molecular target: full-length kinase/Nluc fusion proteins (Homo sapiens, UniProt Q8WU08); details: STK32A (NP_001106195), Nluc orientation N; read-out: Probe EC50
[17] = molecular target: full-length kinase/Nluc fusion proteins (Homo sapiens, UniProt Q8IVH8); details: MAP4K3, Nluc N; read-out: Probe EC50
[18] = molecular target: full-length kinase/Nluc fusion proteins (Homo sapiens, UniProt Q08881); details: ITK, Nluc N; read-out: Probe EC50
[19] = molecular target: full-length kinase/Nluc fusion proteins (Homo sapiens, UniProt Q02763); details: TEK (NP_000450), Nluc orientation C; read-out: Probe EC50
[20] = molecular target: full-length kinase/Nluc fusion proteins (Homo sapiens, UniProt P50613); details: CDK7, Nluc C; read-out: Probe EC50
[21] = molecular target: full-length kinase/Nluc fusion proteins (Homo sapiens, UniProt Q15831); details: STK11 (NP_000446), Nluc orientation N; read-out: Probe EC50
[22] = molecular target: full-length kinase/Nluc fusion proteins (Homo sapiens, UniProt Q2M2I8); details: AAK1, Nluc N; read-out: Probe EC50
[23] = molecular target: full-length kinase/Nluc fusion proteins (Homo sapiens, UniProt Q16816); details: PHKG1, Nluc N; read-out: Probe EC50
[24] = molecular target: full-length kinase/Nluc fusion proteins (Homo sapiens, UniProt Q8IYT8); details: ULK2 (NP_001136082), Nluc orientation N; read-out: Probe EC50
[25] = molecular target: full-length kinase/Nluc fusion proteins (Homo sapiens, UniProt Q00535); details: CDK5, Nluc C; read-out: Probe EC50
[26] = molecular target: full-length kinase/Nluc fusion proteins (Homo sapiens, UniProt Q16659); details: MAPK6, Nluc N; read-out: Probe EC50
[27] = molecular target: full-length kinase/Nluc fusion proteins (Homo sapiens, UniProt Q15349); details: RPS6KA2 (NP_001305865), Nluc orientation N; read-out: Probe EC50
[28] = molecular target: full-length kinase/Nluc fusion proteins (Homo sapiens, UniProt Q15375); details: EPHA7, Nluc C; read-out: Probe EC50
Sequence of full-length kinase/Nluc fusion proteins (Homo sapiens, UniProt Q15375) (Q15375 28-998): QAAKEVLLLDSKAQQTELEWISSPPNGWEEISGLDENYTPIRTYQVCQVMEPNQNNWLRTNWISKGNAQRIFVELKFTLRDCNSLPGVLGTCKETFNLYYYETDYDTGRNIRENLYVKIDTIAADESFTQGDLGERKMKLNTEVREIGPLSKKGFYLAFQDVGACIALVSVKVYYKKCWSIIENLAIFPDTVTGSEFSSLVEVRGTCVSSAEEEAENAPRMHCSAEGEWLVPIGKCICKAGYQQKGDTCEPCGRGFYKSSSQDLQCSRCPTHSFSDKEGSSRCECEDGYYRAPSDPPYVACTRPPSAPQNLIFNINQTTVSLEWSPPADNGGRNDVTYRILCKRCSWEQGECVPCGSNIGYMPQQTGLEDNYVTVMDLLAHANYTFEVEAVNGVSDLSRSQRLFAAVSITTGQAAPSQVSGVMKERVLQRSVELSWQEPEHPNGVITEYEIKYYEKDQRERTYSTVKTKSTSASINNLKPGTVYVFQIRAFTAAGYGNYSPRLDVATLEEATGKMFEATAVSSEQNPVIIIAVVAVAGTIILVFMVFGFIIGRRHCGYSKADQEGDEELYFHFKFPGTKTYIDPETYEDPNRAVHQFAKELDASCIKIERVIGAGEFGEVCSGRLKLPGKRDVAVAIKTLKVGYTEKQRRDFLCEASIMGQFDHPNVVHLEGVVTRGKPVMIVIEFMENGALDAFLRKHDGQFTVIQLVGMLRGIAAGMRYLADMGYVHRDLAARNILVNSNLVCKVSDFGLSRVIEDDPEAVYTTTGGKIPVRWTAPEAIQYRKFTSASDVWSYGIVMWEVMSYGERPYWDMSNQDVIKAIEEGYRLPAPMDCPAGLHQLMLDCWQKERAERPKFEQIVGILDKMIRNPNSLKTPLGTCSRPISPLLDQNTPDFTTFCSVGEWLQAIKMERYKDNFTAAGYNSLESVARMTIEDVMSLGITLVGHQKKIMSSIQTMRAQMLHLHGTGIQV

[29] = molecular target: full-length kinase/Nluc fusion proteins (Homo sapiens, UniProt O60285); details: NUAK1, Nluc N; read-out: Probe EC50
Sequence of full-length kinase/Nluc fusion proteins (Homo sapiens, UniProt O60285) (O60285 whole entry, the tested form may be a part): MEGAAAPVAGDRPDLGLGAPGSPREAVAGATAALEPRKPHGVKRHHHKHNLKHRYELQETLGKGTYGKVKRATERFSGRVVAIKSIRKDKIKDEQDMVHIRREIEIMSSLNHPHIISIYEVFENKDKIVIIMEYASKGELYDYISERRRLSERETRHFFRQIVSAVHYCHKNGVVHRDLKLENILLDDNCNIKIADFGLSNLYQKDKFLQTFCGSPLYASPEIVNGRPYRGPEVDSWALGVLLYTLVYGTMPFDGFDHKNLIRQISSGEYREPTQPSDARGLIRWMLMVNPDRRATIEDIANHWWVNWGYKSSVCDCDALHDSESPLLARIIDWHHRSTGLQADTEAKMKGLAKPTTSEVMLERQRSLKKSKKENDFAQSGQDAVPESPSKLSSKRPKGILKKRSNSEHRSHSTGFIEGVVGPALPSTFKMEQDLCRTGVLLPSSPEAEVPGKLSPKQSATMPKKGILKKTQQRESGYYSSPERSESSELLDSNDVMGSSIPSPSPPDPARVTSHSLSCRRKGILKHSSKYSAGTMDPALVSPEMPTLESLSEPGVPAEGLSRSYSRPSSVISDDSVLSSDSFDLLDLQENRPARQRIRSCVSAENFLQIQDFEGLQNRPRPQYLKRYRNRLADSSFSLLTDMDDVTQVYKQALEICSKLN

[30] = molecular target: full-length kinase/Nluc fusion proteins (Homo sapiens, UniProt O96013); details: PAK4, Nluc C; read-out: Probe EC50
[31] = molecular target: full-length kinase/Nluc fusion proteins (Homo sapiens, UniProt P30291); details: WEE1 (NP_003381), Nluc orientation C; read-out: Probe EC50
Sequence of full-length kinase/Nluc fusion proteins (Homo sapiens, UniProt P30291) (P30291 whole entry, the tested form may be a part): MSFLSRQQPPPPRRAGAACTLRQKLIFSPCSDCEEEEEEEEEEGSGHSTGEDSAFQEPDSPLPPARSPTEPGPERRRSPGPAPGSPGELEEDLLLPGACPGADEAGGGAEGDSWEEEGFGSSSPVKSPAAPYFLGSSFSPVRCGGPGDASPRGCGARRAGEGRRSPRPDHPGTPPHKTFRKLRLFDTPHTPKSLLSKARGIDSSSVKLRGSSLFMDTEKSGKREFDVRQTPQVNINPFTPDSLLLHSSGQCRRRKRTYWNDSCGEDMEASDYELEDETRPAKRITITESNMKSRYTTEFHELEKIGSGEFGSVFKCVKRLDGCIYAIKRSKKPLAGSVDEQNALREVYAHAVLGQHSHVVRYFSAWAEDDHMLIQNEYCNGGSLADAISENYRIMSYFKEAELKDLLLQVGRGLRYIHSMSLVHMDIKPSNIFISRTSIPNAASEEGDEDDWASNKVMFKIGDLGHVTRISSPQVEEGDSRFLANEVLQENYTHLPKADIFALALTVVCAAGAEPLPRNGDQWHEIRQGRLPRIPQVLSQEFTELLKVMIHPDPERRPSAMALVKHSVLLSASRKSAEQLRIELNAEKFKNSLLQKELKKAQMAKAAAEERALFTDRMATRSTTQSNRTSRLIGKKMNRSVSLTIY

[32] = molecular target: full-length kinase/Nluc fusion proteins (Homo sapiens, UniProt P51955); details: NEK2, Nluc N; read-out: Probe EC50

EC50 [1]: 100 nM
EC50 [2]: > 1000 nM
EC50 [3]: 100 nM
EC50 [4]: 10 nM
EC50 [5]: 300 nM
EC50 [6]: 200 nM
EC50 [7]: 10 nM
EC50 [8]: > 1000 nM
EC50 [9]: 40 nM
EC50 [10]: 500 nM
SMILES: Cc1nc(Nc2ncc(C(=O)Nc3c(C)cccc3Cl)s2)cc(N2CCN(CCOCCNC(=O)CCc3ccc4n3[B-](F)(F)[N+]3=C(c5ccc[nH]5)C=CC3=C4)CC2)n1 [Energy Transfer Probe 6, 2-((6-(4-(2-(2-aminoethoxy)ethyl)piperazin-1-yl)-2-methylpyrimidin-4-yl)amino)-N-(2-chloro-6-methylphenyl)thiazole-5-carboxamide-NanoBRET 590]

EC50 [11]: 500 nM
EC50 [12]: > 1000 nM
EC50 [13]: 300 nM
EC50 [14]: 500 nM
EC50 [15]: 400 nM
EC50 [16]: > 1000 nM
EC50 [17]: > 1000 nM
EC50 [18]: 40 nM
EC50 [19]: 400 nM
EC50 [20]: 300 nM
EC50 [21]: > 1000 nM
EC50 [22]: > 1000 nM
EC50 [23]: 400 nM
EC50 [24]: > 1000 nM
EC50 [25]: > 1000 nM
EC50 [26]: 400 nM
EC50 [27]: 600 nM
EC50 [28]: > 1000 nM
EC50 [29]: 100 nM
EC50 [30]: > 1000 nM
EC50 [31]: 50 nM
EC50 [32]: > 1000 nM
SMILES: CNC(=O)c1ccccc1Nc1nc(Nc2ccc(N3CCN(C(=O)CCOCCOCCOCCOCCNC(=O)CCc4ccc5n4[B-](F)(F)[N+]4=C(c6ccc[nH]6)C=CC4=C5)CC3)cc2)ncc1Cl [Energy Transfer Probe 5, 2-((2-((4-(4-(1-amino-3,6,9,12-tetraoxapentadecan-15-oyl)piperazin-1-yl)phenyl)amino)-5-chloropyrimidin-4-yl)amino)-N-methylbenzamide-NanoBRET 590]
